Assay results: US7772180B2, “Hepatitis C virus inhibitors” (Bristol-Myers Squibb Company, priority 2006, dated 2010)
pEC50, pIC50: −log10 of the molar value. Like-named read-outs stand apart in the source and are kept apart here.

Assays:
[1] = tested on: HCV replicon (strain 1b) in HUH-7 cells; experiment: HCV replicon FRET assay; type: cell-based, Hepatitis C virus
Text: An HCV replicon whole cell system was established as described by Lohmann V, Korner F, Koch J, Herian U, Theilmann L, Bartenschlager R., Science 285(5424): 110-3 (1999). This system enabled us to evaluate the effects of our HCV Protease compounds on HCV RNA replication. Briefly, using the HCV strain 1b sequence described in the Lohmann paper (Assession number: AJ238799), an HCV cDNA was synthesized by Operon Technologies, Inc. (Alameda, Calif.), and the full-length replicon was then assembled in plasmid pGem9zf(+) (Promega, Madison, Wis.) using standard molecular biology techniques. The replicon consists of (i) the HCV 5′ UTR fused to the first 12 amino acids of the capsid protein, (ii) the neomycin phosphotransferase gene (neo), (iii) the IRES from encephalomyocarditis virus (EMCV), and (iv) HCV NS3 to NS5B genes and the HCV 3′ UTR. Plasmid DNAs were linearized with ScaI and RNA transcripts were synthesized in vitro using the T7 MegaScript transcription kit (Ambion, Austin, Tex.) according to manufacturer's directions. In vitro transcripts of the cDNA were transfected into the human hepatoma cell line, HUH-7. […] Resulting cell lines were characterized for positive and negative strand RNA production and protein production over time.
The HCV replicon FRET assay was developed to monitor the inhibitory effects of compounds described in the disclosure on HCV viral replication. HUH-7 cells, constitutively expressing the HCV replicon, were grown in Dulbecco's Modified Eagle Media (DMEM) (Gibco-BRL) containing 10% Fetal calf serum (FCS) (Sigma) and 1 mg/ml G418 (Gibco-BRL). Cells were seeded the night before (1.5×10^4 cells/well) in 96-well tissue-culture sterile plates. Compound and no compound controls were prepared in DMEM containing 4% FCS, 1:100 Penicillin/Streptomysin (Gibco-BRL), 1:100 L-glutamine and 5% DMSO in the dilution plate (0.5% DMSO final concentration in the assay). Compound/DMSO mixes were added to the cells and incubated for 4 days at 37° C. After 4 days, cells were first assessed for cytotoxicity using alamar Blue (Trek Diagnotstic Systems) for a CC50 reading. The toxicity of compound (CC50) was determined by adding 1/10th volume of alamarBlue to the media incubating the cells. After 4 hours, the fluorescence signal from each well was read, with an excitation wavelength at 530 nm and an emission wavelength of 580 nm, using the Cytofluor Series 4000 (Perspective Biosystems). Plates were then rinsed thoroughly with Phosphate-Buffered Saline (PBS) (3 times 150 μl).

[2] = molecular target: T1, HCV NS3/4A protease complex, BMS strain (UniProt P27958, species not given/STRAIN_BMS); experiment: FRET peptide assay to monitor HCV NS3/4A proteolytic activity (BMS strain); type: biochemical, Hepatitis C virus (genotype 1a); details: read-out: HCV Protease (IC50), NS3/4A BMS strain
T1 construct: other: NS3/4A BMS strain; activity range class; numeric values, unit not given; said of H77 and J4L6S; fused on or other part: A three-lysine solubilising tail at the C-terminus of NS4A; A His tag is implied by the pET21b vector and Ni-NTA purification; Both are printed for the H77 and J4L6S constructs and apply to BMS by inference
T1 sequence (P27958 1027-1657, change not shown, one chain of several): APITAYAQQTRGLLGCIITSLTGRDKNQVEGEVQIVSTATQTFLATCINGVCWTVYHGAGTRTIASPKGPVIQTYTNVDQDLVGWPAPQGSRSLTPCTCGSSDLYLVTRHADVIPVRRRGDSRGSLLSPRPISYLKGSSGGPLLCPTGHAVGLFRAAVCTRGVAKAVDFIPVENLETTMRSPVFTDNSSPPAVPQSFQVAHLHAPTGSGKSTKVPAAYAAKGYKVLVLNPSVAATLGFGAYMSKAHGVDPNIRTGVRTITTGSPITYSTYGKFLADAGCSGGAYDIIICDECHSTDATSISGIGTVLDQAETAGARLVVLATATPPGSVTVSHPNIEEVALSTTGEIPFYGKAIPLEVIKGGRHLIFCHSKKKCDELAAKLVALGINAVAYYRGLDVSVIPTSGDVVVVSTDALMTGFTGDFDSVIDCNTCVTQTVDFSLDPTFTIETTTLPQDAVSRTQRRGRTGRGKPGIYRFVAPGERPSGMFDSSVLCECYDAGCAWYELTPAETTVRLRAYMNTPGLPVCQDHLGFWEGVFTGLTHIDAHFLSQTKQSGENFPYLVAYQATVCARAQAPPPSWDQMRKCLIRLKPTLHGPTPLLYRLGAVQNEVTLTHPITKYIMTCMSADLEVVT
Text: HCV NS3 protease complexes, derived from the BMS strain, H77 strain or J4L6S strain, were generated, as described below. These purified recombinant proteins were generated for use in a homogeneous assay (see below) to provide an indication of how effective compounds of the present disclosure would be in inhibiting HCV NS3 proteolytic activity.
Serum from an HCV-infected patient was obtained from Dr. T. Wright, San Francisco Hospital. An engineered full-length cDNA (compliment deoxyribonucleic acid) template of the HCV genome (BMS strain) was constructed from DNA fragments obtained by reverse transcription-PCR (RT-PCR) of serum RNA (ribonucleic acid) and using primers selected on the basis of homology between other genotype 1a strains. From the determination of the entire genome sequence, a genotype 1a was assigned to the HCV isolate according to the classification of Simmonds et al. (See P Simmonds, K A Rose, S Graham, S W Chan, F McOmish, B C Dow, E A Follett, P L Yap and H Marsden, J. Clin. Microbiol., 31(6), 1493-1503 (1993)). […] The infectious clones, H77 (1a genotype) and J4L6S (1b genotype) were obtained from R. Purcell (NIH) and the sequences are published in Genbank (AAB67036, see Yanagi, M., Purcell, R. H., Emerson, S. U. and Bukh, J. Proc. Natl. Acad. Sci. U.S.A. 94(16), 8738-8743 (1997); AF054247, see Yanagi, M., St Claire, M., Shapiro, M., Emerson, S. U., Purcell, R. H. and Bukh, J. Virology 244 (1), 161-172. (1998)).
NS3/4A protease complex-containing fractions were pooled and loaded on a desalting column Superdex-S200 pre-equilibrated with buffer D (25 mM HEPES, pH 7.5, 20% glycerol, 300 mM NaCl, 0.2% Triton X-100, 10 mM βME). Sample was loaded at a flow rate of 1 mL/min. NS3/4A protease complex-containing fractions were pooled and concentrated to approximately 0.5 mg/ml. The purity of the NS3/4A protease complexes, derived from the BMS, H77 and J4L6S strains, were judged to be greater than 90% by SDS-PAGE and mass spectrometry analyses. The enzyme was stored at −80° C., thawed on ice and diluted prior to use in assay buffer.
The purpose of this in vitro assay was to measure the inhibition of HCV NS3 protease complexes, derived from the BMS strain, H77 strain or J4L6S strain, as described above, by compounds of the present disclosure. This assay provides an indication of how effective compounds of the present disclosure would be in inhibiting HCV NS3 proteolytic activity.
In order to monitor HCV NS3/4A protease activity, an NS3/4A peptide substrate was used. The substrate was RET S1 (Resonance Energy Transfer Depsipeptide Substrate; AnaSpec, Inc. cat #22991) (FRET peptide), described by Taliani et al. in Anal. Biochem. 240(2):60-67 (1996). The sequence of this peptide is loosely based on the NS4A/NS4B natural cleavage site for the HCV NS3 protease except there is an ester linkage rather than an amide bond at the cleavage site. The peptide also contains a fluorescence donor, EDANS, near one end of the peptide and an acceptor, DABCYL, near the other end. The fluorescence of the peptide is quenched by […] resonance energy transfer (RET) between the donor and the acceptor, but as the NS3 protease cleaves the peptide the products are released from RET quenching and the fluorescence of the donor becomes apparent.
The peptide substrate was incubated with one of the three recombinant NS3/4A protease complexes, in the absence or presence of a compound of the present disclosure. The inhibitory effects of a compound were determined by monitoring the formation of fluorescent reaction product in real time using a Cytofluor Series 4000.
Assay buffer: 50 mM HEPES, pH 7.5; 0.15 M NaCl; 0.1% Triton; 15% Glycerol; 10 mM βME. Substrate: 2 μM final concentration (from a 2 mM stock solution in DMSO stored at −20° C.). HCV NS3/4A protease type 1a (1b), 2-3 nM final concentration (from a 5 μM stock solution in 25 mM HEPES, pH 7.5, 20% glycerol, 300 mM NaCl, 0.2% Triton-X100, 10 mM βME). […]

[3] = Hepatitis C virus, Huh-7, read-out: HCV Pro Replicon (EC50), HCV replicon cell assay, activity range class

| SMILES | pEC50 [1, 3] | pIC50 ([2]; activity range class) | pEC50 ([1]; Hepatitis C virus, Huh-7, read-out: HCV Pro Replicon (EC50), HCV replicon cell assay, numeric values, unit inferred) | pIC50 ([2]; numeric values, unit inferred) | pEC50 ([1]; read-out: HCV Pro Replicon (EC50), HCV replicon cell assay, activity range class) |
| --- | --- | --- | --- | --- | --- |
| C=C[C@@H]1C[C@]1(NC(=O)[C@@H]1C[C@@H](Oc2ncc(OC)c3ccc(Cl)cc23)CN1C(=O)[C@@H](Nc1cccc(C(=O)OC)c1)C(C)(C)C)C(=O)NS(=O)(=O)C1CC1 [232 first isomer, N-(3-(methoxycarbonyl)phenyl)-3-methyl-L-valyl-(4R)-4-((7-chloro-4-methoxy-1-isoquinolinyl)oxy)-N-((1R,2S)-1-((cyclopropylsulfonyl)carbamoyl)-2-vinylcyclopropyl)-L-prolinamide] | 7.00 to 8.52 | 7.70 to 9.22 | – | – | – |
| C=C[C@@H]1C[C@]1(NC(=O)[C@@H]1C[C@@H](Oc2ncc(OC)c3ccc(Cl)cc23)CN1C(=O)C(Nc1nsnc1OCC)C(C)(C)C)C(=O)NS(=O)(=O)C1CC1 (stereo partly shown) [Compound 243] | 7.00 to 8.52 | 7.70 to 9.22 | – | – | – |
| C=C[C@@H]1C[C@]1(NC(=O)[C@@H]1C[C@@H](Oc2ncc(OC)c3ccc(Cl)cc23)CN1C(=O)[C@@H](Nc1ccc(S(=O)(=O)NC(C)(C)C)cc1)C(C)(C)C)C(=O)NS(=O)(=O)C1CC1 [214 first isomer, N-(4-(tert-butylsulfamoyl)phenyl)-3-methyl-L-valyl-(4R)-4-((7-chloro-4-methoxy-1-isoquinolinyl)oxy)-N-((1R,2S)-1-((cyclopropylsulfonyl)carbamoyl)-2-vinylcyclopropyl)-L-prolinamide] | 6.00 to 7.00 | 7.70 to 9.22 | – | – | – |
| C=C[C@@H]1C[C@]1(NC(=O)[C@@H]1C[C@@H](Oc2ncc(OC)c3ccc(Cl)cc23)CN1C(=O)[C@H](Nc1ccc(S(=O)(=O)N(C)C)cc1)C(C)(C)C)C(=O)NS(=O)(=O)C1CC1 [224 second isomer, N-(4-(dimethylsulfamoyl)phenyl)-3-methyl-D-valyl-(4R)-4-((7-chloro-4-methoxy-1-isoquinolinyl)oxy)-N-((1R,2S)-1-((cyclopropylsulfonyl)carbamoyl)-2-vinylcyclopropyl)-L-prolinamide] | 6.00 to 7.00 | < 6.70 | – | – | – |
| C=C[C@@H]1C[C@]1(NC(=O)[C@@H]1C[C@@H](Oc2nccc3cc(OC)ccc23)CN1C(=O)[C@H](Nc1cc(C)cc(C)n1)C(C)C)C(=O)NS(=O)(=O)C1CC1 [Compound 1B, N-(4,6-dimethyl-2-pyridinyl)-D-valyl-(4R)—N-((1R,2S)-1-((cyclopropylsulfonyl)carbamoyl)-2-vinylcyclopropyl)-4-((6-methoxy-1-isoquinolinyl)oxy)-L-prolinamide] | – | – | 5.79 | 6.54 | – |
| C=C[C@@H]1C[C@]1(NC(=O)[C@@H]1C[C@@H](Oc2ncc(OC)c3ccc(Cl)cc23)CN1C(=O)C(CC)Nc1nsnc1OC)C(=O)CS(=O)(=O)C1CC1 (stereo partly shown) [Compound 241] | < 6.00 | < 6.70 | – | – | – |
| C=C[C@@H]1C[C@]1(NC(=O)[C@@H]1C[C@@H](Oc2ncc(OC)c3ccc(Cl)cc23)CN1C(=O)[C@@H](Nc1cccc(F)c1F)C(C)(C)C)C(=O)NS(=O)(=O)C1CC1 [208 first isomer, N-(2,3-difluorophenyl)-3-methyl-L-valyl-(4R)-4-((7-chloro-4-methoxy-1-isoquinolinyl)oxy)-N-((1R,2S)-1-((cyclopropylsulfonyl)carbamoyl)-2-vinylcyclopropyl)-L-prolinamide] | 7.00 to 8.52 | 7.70 to 9.22 | – | – | – |
| C=C[C@@H]1C[C@]1(NC(=O)[C@@H]1C[C@@H](Oc2ncc(OC)c3ccc(Cl)cc23)CN1C(=O)C(Nc1cc(C)c([N+](=O)[O-])cn1)C(C)(C)C)C(=O)NS(=O)(=O)C1CC1 (stereo partly drawn) [Compound 23, 3-methyl-N-(4-methyl-5-nitro-2-pyridinyl)valyl-(4R)-4-((7-chloro-4-methoxy-1-isoquinolinyl)oxy)-N-((1R,2S)-1-((cyclopropylsulfonl)carbamoyl)-2-vinylcyclopropyl)-L-prolinamide] | 7.00 to 8.52 | 7.70 to 9.22 | – | – | – |
| C=C[C@@H]1C[C@]1(NC(=O)[C@@H]1C[C@@H](Oc2ncc(OC)c3ccc(Cl)cc23)CN1C(=O)[C@@H](Nc1cccc(C(=O)OC(C)(C)C)c1)C(C)(C)C)C(=O)NS(=O)(=O)C1CC1 [210 first isomer, N-(3-(tert-butoxycarbonyl)phenyl)-3-methyl-L-valyl-(4R)-4-((7-chloro-4-methoxy-1-isoquinolinyl)oxy)-N-((1R,2S)-1-((cyclopropylsulfonyl)carbamoyl)-2-vinylcyclopropyl)-L-prolinamide] | 7.00 to 8.52 | 7.70 to 9.22 | – | – | – |
| C=CCCCCCC(Nc1ccc(OC)nc1)C(=O)N1C[C@H](Oc2ncc(OC)c3ccc(Cl)cc23)C[C@H]1C(=O)N[C@]1(C(=O)NS(=O)(=O)C2CC2)C[C@H]1C=C (stereo partly shown) [Compound 411] | – | < 6.70 | – | – | 6.00 to 7.00 |
| C=C[C@@H]1C[C@]1(NC(=O)[C@@H]1C[C@@H](Oc2ncc(OC)c3ccc(Cl)cc23)CN1C(=O)[C@@H](Nc1ccc(F)c(F)c1)C(C)(C)C)C(=O)NS(=O)(=O)C1CC1 [220 first isomer, N-(3,4-difluorophenyl)-3-methyl-L-valyl-(4R)-4-((7-chloro-4-methoxy-1-isoquinolinyl)oxy)-N-((1R,2S)-1-((cyclopropylsulfonyl)carbamoyl)-2-vinylcyclopropyl)-L-prolinamide] | 7.00 to 8.52 | 7.70 to 9.22 | – | – | – |
